Source: PubChem BioAssay AID248 (DTP/NCI, 2004)
“And” between values parts separate entries of the source, which are not always exact repeats. Identical values can stand only once. Toxic doses and inconclusive results are not listed. Cut-off read from the data, not from the text of the source: active = T/C of 150% or more; inactive = T/C below 125%.

Tested on: L1210 leukemia ip in BDF1 mice, survival T/C
Experiment: NCI In Vivo Anticancer Drug Screen. Data for tumor model L1210 Leukemia (intraperitoneal) in B6D2F1 (BDF1) mice
Details: endpoint: mean survival time, higher = longer survival
Outline: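 Transplanted-tumor mice were given test agent; controls received vehicle only. Survival readings from the two groups were divided (treated over control).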

[1] = dose: 200.0 mg/kg/injection, schedule: Q01DX001 (ip), vehicle: carboxymethylcellulose (CMC)
[2] = dose: 400.0 mg/kg/injection, schedule: Q01DX001 (ip), vehicle: carboxymethylcellulose (CMC)
[3] = dose: 100.0 mg/kg/injection, schedule: Q01DX009 (ip), vehicle: saline with Tween-80
[4] = dose: 100.0 mg/kg/injection, schedule: Q04DX003 (ip), vehicle: saline with Tween-80
[5] = dose: 200.0 mg/kg/injection, schedule: Q01DX009 (ip), vehicle: saline with Tween-80
[6] = dose: 200.0 mg/kg/injection, schedule: Q04DX003 (ip), vehicle: saline with Tween-80
[7] = dose: 400.0 mg/kg/injection, schedule: Q04DX003 (ip), vehicle: saline with Tween-80
[8] = dose: 100.0 mg/kg/injection, schedule: Q04DX002 (ip), vehicle: Klucel (hydroxypropylcellulose) (HPC)
[9] = dose: 200.0 mg/kg/injection, schedule: Q04DX002 (ip), vehicle: Klucel (hydroxypropylcellulose) (HPC)
[10] = dose: 50.0 mg/kg/injection, schedule: Q01DX009 (ip), vehicle: saline with Tween-80

Measured: T/C

Cc1cn(C2CC(OS(C)(=O)=O)C(COC(c3ccccc3)(c3ccccc3)c3ccccc3)O2)c(=O)[nH]c1=O (stereo not given)
inactive: dose: 100.0 mg/kg/injection, schedule: Q01DX005 (ip), vehicle: saline 104 % of control | dose: 200.0 mg/kg/injection, schedule: Q01DX005 (ip), vehicle: saline 96 % of control

C(=N/N=C/c1ccccn1)/c1cccnc1
inactive: dose: 100.0 mg/kg/injection, schedule: Q01DX001 (ip), vehicle: carboxymethylcellulose (CMC) 94 % of control | [1] 96 % of control | [2] 96 % of control

O=C(O)/C=C/C(=O)Nc1ccc([N+](=O)[O-])cc1
inactive: [3] 101 % of control | [4] 107 % of control | [5] 102 % of control | [6] 101 % of control | dose: 400.0 mg/kg/injection, schedule: Q01DX009 (ip), vehicle: saline with Tween-80 95 % of control | [7] 107 % of control

CCOC(=O)Cc1nc2ccccc2[nH]c1=O
inactive: dose: 50.0 mg/kg/injection, schedule: Q04DX002 (ip), vehicle: Klucel (hydroxypropylcellulose) (HPC) 107 % of control | [8] 96 % of control | [9] 96 % of control

Cc1cc(Cl)nc(Cl)n1
inactive: dose: 25.0 mg/kg/injection, schedule: Q04DX002 (ip), vehicle: saline 88 % of control | dose: 50.0 mg/kg/injection, schedule: Q04DX002 (ip), vehicle: saline 98 % of control | dose: 100.0 mg/kg/injection, schedule: Q04DX002 (ip), vehicle: saline 98 % of control

O=c1[nH]c2ccc(Cl)cc2c2nc3ccccc3n12
inactive: dose: 50.0 mg/kg/injection, schedule: Q01DX009 (ip), vehicle: Klucel (hydroxypropylcellulose) (HPC) 107 % of control | dose: 100.0 mg/kg/injection, schedule: Q01DX009 (ip), vehicle: Klucel (hydroxypropylcellulose) (HPC) 101 % of control | dose: 200.0 mg/kg/injection, schedule: Q01DX009 (ip), vehicle: Klucel (hydroxypropylcellulose) (HPC) 92 % of control

O=C(c1ccccc1)c1c(-c2ccccc2)c(-c2ccccc2)n(-c2ccccc2)c1C(=O)c1ccccc1
inactive: dose: 22.2 mg/kg/injection, schedule: Q01DX001 (ip), vehicle: carboxymethylcellulose (CMC) 94 % of control and 96 % of control | dose: 33.35 mg/kg/injection, schedule: Q01DX001 (ip), vehicle: carboxymethylcellulose (CMC) 91 % of control | dose: 50.0 mg/kg/injection, schedule: Q01DX001 (ip), vehicle: carboxymethylcellulose (CMC) 94 % of control | dose: 75.0 mg/kg/injection, schedule: Q01DX001 (ip), vehicle: carboxymethylcellulose (CMC) 94 % of control

O=C(C1C2C=CC(C2)C1C(=O)N1CCOCC1)N1CCOCC1 (stereo not given)
inactive: [4] 107 % of control | [6] 102 % of control | [7] 107 % of control

O=C(CCCCCCCCC(=O)N/N=C/c1ccc(Cl)c(Cl)c1)N/N=C/c1ccc(Cl)c(Cl)c1
inactive: [10] 91 % of control | [3] 93 % of control | [4] 89 % of control | [6] 89 % of control

CCCCC1C(=O)OC(C(C)C(O)CCCN=C(N)N)C(C)C=C(C)CCCCC(O)CC(O)CC(O)CC(O)CC(O)C(OC2OC(CO)C(O)C2O)C=C(C)C(O)CCCC(O)CCCC(O)CCC(C)C1O (stereo not given)
inactive: dose: 0.71 mg/kg/injection, schedule: Q01DX Z (ip), vehicle: carboxymethylcellulose (CMC) 96 % of control

CC1(N)COP(=O)(Nc2ccccc2)OC1 (stereo not given)
inactive: dose: 44.4 mg/kg/injection, schedule: Q01DX001 (ip), vehicle: carboxymethylcellulose (CMC) 101 % of control | dose: 66.7 mg/kg/injection, schedule: Q01DX001 (ip), vehicle: carboxymethylcellulose (CMC) 101 % of control | dose: 150.0 mg/kg/injection, schedule: Q01DX001 (ip), vehicle: carboxymethylcellulose (CMC) 107 % of control | [1] 92 % of control | [2] 103 % of control

Oc1ccc2ccccc2c1/C=N/Nc1ccc2ccccc2n1
inactive: dose: 25.0 mg/kg/injection, schedule: Q01DX001 (ip), vehicle: saline with Tween-80 97 % of control | dose: 50.0 mg/kg/injection, schedule: Q01DX001 (ip), vehicle: saline with Tween-80 101 % of control | dose: 100.0 mg/kg/injection, schedule: Q01DX001 (ip), vehicle: saline with Tween-80 98 % of control

O=C1CNC(=O)CN1
inactive: dose: 75.0 mg/kg/injection, schedule: Q01DX009 (ip), vehicle: saline 94 % of control | dose: 100.0 mg/kg/injection, schedule: Q04DX003 (ip), vehicle: saline 103 % of control | dose: 150.0 mg/kg/injection, schedule: Q01DX009 (ip), vehicle: saline 92 % of control | dose: 200.0 mg/kg/injection, schedule: Q04DX003 (ip), vehicle: saline 106 % of control | dose: 300.0 mg/kg/injection, schedule: Q01DX009 (ip), vehicle: saline 94 % of control | dose: 400.0 mg/kg/injection, schedule: Q04DX003 (ip), vehicle: saline 100 % of control

CCCCCCC(C)O[Si](C)OCC (stereo not given)
inactive: [4] 95 % of control | [6] 101 % of control | [7] 96 % of control

O=C(OC(=O)c1ccc([N+](=O)[O-])cc1)c1ccc([N+](=O)[O-])cc1
inactive: dose: 100.0 mg/kg/injection, schedule: Q01DX009 (sc), vehicle: olive oil, sesame oil, peanut oil 104 % of control | dose: 100.0 mg/kg/injection, schedule: Q04DX003 (sc), vehicle: olive oil, sesame oil, peanut oil 98 % of control | dose: 200.0 mg/kg/injection, schedule: Q01DX009 (sc), vehicle: olive oil, sesame oil, peanut oil 106 % of control | dose: 200.0 mg/kg/injection, schedule: Q04DX003 (sc), vehicle: olive oil, sesame oil, peanut oil 98 % of control | dose: 400.0 mg/kg/injection, schedule: Q01DX009 (sc), vehicle: olive oil, sesame oil, peanut oil 118 % of control | dose: 400.0 mg/kg/injection, schedule: Q04DX003 (sc), vehicle: olive oil, sesame oil, peanut oil 101 % of control

O=C(O)C1CC2CCC1C2 (stereo not given)
inactive: dose: 100.0 mg/kg/injection, schedule: Q01DX009 (ip), vehicle: saline 100 % of control | dose: 200.0 mg/kg/injection, schedule: Q01DX009 (ip), vehicle: saline 104 % of control | dose: 400.0 mg/kg/injection, schedule: Q01DX009 (ip), vehicle: saline 92 % of control

CSC(c1ccc(Oc2ccccc2)cc1)=[N+]1CCCCC1
inactive: dose: 9.38 mg/kg/injection, schedule: Q01DX001 (ip), vehicle: steriod suspending solution 105 % of control | dose: 18.75 mg/kg/injection, schedule: Q01DX001 (ip), vehicle: steriod suspending solution 103 % of control | dose: 37.5 mg/kg/injection, schedule: Q01DX001 (ip), vehicle: steriod suspending solution 105 % of control

CCCCCCCCCCCCNC(=O)C[N+](C)(C)Cc1ccc2c(c1)CCCC2
inactive: dose: 2.5 mg/kg/injection, schedule: Q01DX009 (ip), vehicle: saline with Tween-80 106 % of control | dose: 5.0 mg/kg/injection, schedule: Q01DX009 (ip), vehicle: saline with Tween-80 94 % of control

CC(C)(Cc1ccccc1)C(C(=O)O)C(=O)O
inactive: dose: 100.0 mg/kg/injection, schedule: Q01DX001 (ip), vehicle: gum acacia 91 % of control | dose: 200.0 mg/kg/injection, schedule: Q01DX001 (ip), vehicle: gum acacia 95 % of control

O=C(O)CCNC(=O)c1ccccc1
inactive: dose: 87.5 mg/kg/injection, schedule: Q04DX003 (ip), vehicle: saline 97 % of control | dose: 175.0 mg/kg/injection, schedule: Q04DX003 (ip), vehicle: saline 98 % of control | dose: 350.0 mg/kg/injection, schedule: Q04DX003 (ip), vehicle: saline 93 % of control

Cc1c(Cl)cccc1NC(=O)NC(=O)c1ccccc1
inactive: [10] 101 % of control | [3] 108 % of control | [5] 97 % of control

CCOC(=O)CNC(=O)Nc1ccc(C(=O)OCC)cc1
inactive: [3] 98 % of control | [5] 92 % of control

CCOC(=O)c1cnc(SC)nc1N(c1ccccc1)c1ccccc1
inactive: dose: 100.0 mg/kg/injection, schedule: Q04DX003 (ip), vehicle: Klucel (hydroxypropylcellulose) (HPC) 90 % of control | dose: 200.0 mg/kg/injection, schedule: Q04DX003 (ip), vehicle: Klucel (hydroxypropylcellulose) (HPC) 86 % of control | dose: 400.0 mg/kg/injection, schedule: Q04DX003 (ip), vehicle: Klucel (hydroxypropylcellulose) (HPC) 95 % of control

CCCCS(=O)(=O)N1CCC(C)CC1
inactive: [8] 87 % of control | [9] 91 % of control | dose: 400.0 mg/kg/injection, schedule: Q04DX002 (ip), vehicle: Klucel (hydroxypropylcellulose) (HPC) 94 % of control

C=CCc1cnc(N)[nH]c1=O
inactive: [4] 103 % of control | [6] 97 % of control | [7] 100 % of control

CCCCCCCCCCCCC(=O)O
inactive: dose: 100.0 mg/kg/injection, schedule: Q04DX002 (ip), vehicle: saline with Tween-80 98 % of control | dose: 200.0 mg/kg/injection, schedule: Q04DX002 (ip), vehicle: saline with Tween-80 98 % of control | dose: 400.0 mg/kg/injection, schedule: Q04DX002 (ip), vehicle: saline with Tween-80 105 % of control
